In ChEMBL document CHEMBL6074634, “Design, synthesis, and evaluation of novel oxyacanthine derivatives for anti-SARS-CoV-2 activity” (Bioorg Med Chem Lett, 2024):

tested on: SARS-CoV-2; assay: Antiviral activity against SARS CoV-2 infected in african green monkey Vero E6 cells assessed as inhibition of viral growth preincubated with cells for 1 hr followed by viral addition for 1 hr with subsequent compound washout and measured after 24 hrs of compound replacement by qRT-PCR analysis; type: functional, organism-based; conditions: Severe acute respiratory syndrome coronavirus 2, Vero C1008

First: COc1cc2c3cc1Oc1c(OC)c(OC)cc4c1[C@H](Cc1ccc(cc1)Oc1cc(ccc1C1CC1)C[C@H]3N(C)CC2)N(C)CC4
Second: COc1cc2c3cc1Oc1c(OC)c(OC)cc4c1[C@H](Cc1ccc(cc1)Oc1cc(ccc1N)C[C@H]3N(C)CC2)N(C)CC4
The IC50 of the first is lower: 2570 nM for the first, > 5000 nM for the second. The first is the more potent here.

Going from `COc1ccc(NC(=O)c2ccc3cc2Oc2ccc(cc2)C[C@H]2c4c(cc(OC)c(OC)c4Oc4cc5c(cc4OC)CCN(C)[C@@H]5C3)CCN2C)cc1` to `COc1cc2c3cc1Oc1c(OC)c(OC)cc4c1[C@H](Cc1ccc(cc1)Oc1cc(ccc1C(=O)Nc1ccc(C(F)(F)F)cc1)C[C@H]3N(C)CC2)N(C)CC4`, the IC50 rises from 620 nM to 2780 nM (4.5-fold). The first is the more potent here.

Going from `COc1cc2c3cc1Oc1c(OC)c(OC)cc4c1[C@H](Cc1ccc(cc1)Oc1cc(ccc1C(=O)Nc1ccccc1)C[C@H]3N(C)CC2)N(C)CC4` to `COc1cc2c3cc1Oc1c(OC)c(OC)cc4c1[C@H](Cc1ccc(cc1)Oc1cc(ccc1C(=O)Nc1cccnc1)C[C@H]3N(C)CC2)N(C)CC4`, the IC50 falls from 2820 nM to 940 nM (3-fold).

Going from `C=CC(=O)Nc1ccc2cc1Oc1ccc(cc1)C[C@H]1c3c(cc(OC)c(OC)c3Oc3cc4c(cc3OC)CCN(C)[C@@H]4C2)CCN1C` to `CNc1ccc2cc1Oc1ccc(cc1)C[C@H]1c3c(cc(OC)c(OC)c3Oc3cc4c(cc3OC)CCN(C)[C@@H]4C2)CCN1C`, the IC50 rises from 1850 nM to > 5000 nM. The first is the more potent here.

Compared with `COc1cc2c3cc1Oc1c(OC)c(OC)cc4c1[C@H](Cc1ccc(cc1)Oc1cc(ccc1C(=O)NC1CCCC1)C[C@H]3N(C)CC2)N(C)CC4`, `COc1cc2c3cc1Oc1c(OC)c(OC)cc4c1[C@H](Cc1ccc(cc1)Oc1cc(ccc1C(=O)NC1CCC1)C[C@H]3N(C)CC2)N(C)CC4` is 2.8-fold lower in IC50: 1490 nM for the first, 530 nM for the second. The second is the more potent here.

First: COc1cc2c3cc1Oc1c(OC)c(OC)cc4c1[C@H](Cc1ccc(cc1)Oc1cc(cc([N+](=O)[O-])c1)C[C@H]3N(C)CC2)N(C)CC4
Second: COc1cc2c3cc1Oc1c(OC)c(OC)cc4c1[C@H](Cc1ccc(cc1)Oc1cc(cc([N+](=O)[O-])c1O)C[C@H]3N(C)CC2)N(C)CC4
The IC50 of the first is lower: 720 nM for the first, > 5000 nM for the second.

Going from `COc1cc2c3cc1Oc1c(OC)c(OC)cc4c1[C@H](Cc1ccc(cc1)Oc1cc(ccc1C(=O)NC1CC1)C[C@H]3N(C)CC2)N(C)CC4` to `CNC(=O)c1ccc2cc1Oc1ccc(cc1)C[C@H]1c3c(cc(OC)c(OC)c3Oc3cc4c(cc3OC)CCN(C)[C@@H]4C2)CCN1C`, the IC50 rises from 890 nM to 2510 nM (2.8-fold). The first is the more potent here.

Going from `COc1cc2c3cc1Oc1c(OC)c(OC)cc4c1[C@H](Cc1ccc(cc1)Oc1cc(ccc1C(=O)N1CCCCC1)C[C@H]3N(C)CC2)N(C)CC4` to `COc1cc2c3cc1Oc1c(OC)c(OC)cc4c1[C@H](Cc1ccc(cc1)Oc1cc(ccc1C(=O)O)C[C@H]3N(C)CC2)N(C)CC4`, the IC50 rises from 1600 nM to > 5000 nM. The first is the more potent here.

First: COc1cc2c3cc1Oc1c(OC)c(OC)cc4c1[C@H](Cc1ccc(cc1)Oc1cccc(c1)C[C@H]3N(C)CC2)N(C)CC4
Second: COc1cc2c3cc1Oc1c(OC)c(OC)cc4c1[C@H](Cc1ccc(cc1)Oc1cc(ccc1C)C[C@H]3N(C)CC2)N(C)CC4
The IC50 of the first is 2.6-fold lower: 930 nM for the first, 2450 nM for the second.

`COc1cc2c3cc1Oc1c(OC)c(OC)cc4c1[C@H](Cc1ccc(cc1)Oc1cc(cc(N)c1O)C[C@H]3N(C)CC2)N(C)CC4` and `COc1cc2c3cc1Oc1c(OC)c(OC)cc4c1[C@H](Cc1ccc(cc1)Oc1cc(ccc1O)C[C@H]3N(C)CC2)N(C)CC4` [AROMOLINE] cannot be ordered by IC50: > 5000 nM for the first, 14500 nM for the second.

`COc1cc2c3cc1Oc1c(OC)c(OC)cc4c1[C@H](Cc1ccc(cc1)Oc1cc(ccc1C(C)=O)C[C@H]3N(C)CC2)N(C)CC4` and `C=C(C)c1ccc2cc1Oc1ccc(cc1)C[C@H]1c3c(cc(OC)c(OC)c3Oc3cc4c(cc3OC)CCN(C)[C@@H]4C2)CCN1C` are within 1.5-fold of each other in IC50: 1480 nM for the first, 1090 nM for the second.

Compared with `COC(=O)c1ccc2cc1Oc1ccc(cc1)C[C@H]1c3c(cc(OC)c(OC)c3Oc3cc4c(cc3OC)CCN(C)[C@@H]4C2)CCN1C`, `COc1cc2c3cc1Oc1c(OC)c(OC)cc4c1[C@H](Cc1ccc(cc1)Oc1cc(ccc1C(N)=O)C[C@H]3N(C)CC2)N(C)CC4` is 1.5-fold lower in IC50: 840 nM for the first, 550 nM for the second.

`COc1cc2c3cc1Oc1c(OC)c(OC)cc4c1[C@H](Cc1ccc(cc1)Oc1cc(ccc1C(=O)NC15CC6CC(CC(C6)C1)C5)C[C@H]3N(C)CC2)N(C)CC4` and `COc1cc2c3cc1Oc1c(OC)c(OC)cc4c1[C@H](Cc1ccc(cc1)Oc1cc(ccc1C(=O)NC(C)C)C[C@H]3N(C)CC2)N(C)CC4` are within 1.5-fold of each other in IC50: 1060 nM for the first, 1020 nM for the second.

Compared with `COc1cc2c3cc1Oc1c(OC)c(OC)cc4c1[C@H](Cc1ccc(cc1)Oc1cc(ccc1NCc1ccccc1)C[C@H]3N(C)CC2)N(C)CC4`, `CCCCCNC(=O)c1ccc2cc1Oc1ccc(cc1)C[C@H]1c3c(cc(OC)c(OC)c3Oc3cc4c(cc3OC)CCN(C)[C@@H]4C2)CCN1C` is lower in IC50: > 5000 nM for the first, 2520 nM for the second.

First: COc1cc2c3cc1Oc1c(OC)c(OC)cc4c1[C@H](Cc1ccc(cc1)Oc1cc(ccc1C(=O)NCCOCCO)C[C@H]3N(C)CC2)N(C)CC4
Second: COc1cc2c3cc1Oc1c(OC)c(OC)cc4c1[C@H](Cc1ccc(cc1)OC1C=C(Cc5[nH]c(=O)oc51)C[C@H]3N(C)CC2)N(C)CC4 (stereo not given in full)
The IC50 of the first is 4.1-fold higher: 2740 nM for the first, 670 nM for the second.
